# Measurements taken from PubChem BioAssay AID1745844 (Carcinogenic Potency Database (CPDB), 2022).
# Where “and” joins values, the source holds several entries; their conditions need not be identical. Equal entries are not always repeated. Calls of active or inactive are those of the source. The rule behind the calls is not given here.
# System: rodent lifetime carcinogenesis bioassay, tumor incidence TD50
# Assay: carcinogenic potency in animals, long-term in vivo studies, CPDB compilation (AID 1745844)
smiles,measurement,setting,value
ClC1=C(Cl)[C@]2(Cl)[C@@H]3[C@@H]4C[C@@H]([C@H]5O[C@@H]45)[C@@H]3[C@@]1(Cl)C2(Cl)Cl,TD50,"hamster, strain Syrian Golden, females, in feed, site: any site (literature study), lesion: several types, types named in the paper, dosed 100 weeks, study length 114 weeks",355 mg/kg/day (inactive)
same,TD50,"hamster, strain Syrian Golden, females, in feed, site: liver, lesion: hepatoma, dosed 100 weeks, study length 114 weeks",176 mg/kg/day (inactive)
same,carcinogen call,"hamster, strain Syrian Golden, females, in feed, site: lung, lesion: one or several types, types not named, dosed 100 weeks, study length 114 weeks",negative (inactive)
same,TD50,"hamster, strain Syrian Golden, males, in feed, site: any site (literature study), lesion: several types, types named in the paper, dosed 114 weeks, study length 114 weeks",69.9 mg/kg/day (inactive)
same,TD50,"hamster, strain Syrian Golden, males, in feed, site: liver, lesion: hepatoma, dosed 114 weeks, study length 114 weeks",198 mg/kg/day (inactive)
same,TD50,"hamster, strain Syrian Golden, males, in feed, site: lung, lesion: adenoma, dosed 114 weeks, study length 114 weeks",732 mg/kg/day (inactive)
same,carcinogen call,"mouse, strain B6C3F1, females, in feed, site: any site (literature study), lesion: several types, types named in the paper, dosed 80 weeks, study length 91 weeks",negative (inactive)
same,TD50,"mouse, strain B6C3F1, females, in feed, site: liver, lesion: hepatocellular adenoma + hepatocellular carcinoma + neoplastic nodule, dosed 80 weeks, study length 91 weeks",1.09 mg/kg/day
same,TD50,"mouse, strain B6C3F1, females, in feed, site: lung, lesion: alveolar/bronchiolar adenoma + alveolar/bronchiolar carcinoma, dosed 80 weeks, study length 91 weeks",5.05 mg/kg/day
same,TD50,"mouse, strain B6C3F1, males, in feed, site: any site (literature study), lesion: several types, types named in the paper, dosed 80 weeks, study length 91 weeks",1.06 mg/kg/day (inactive)
same,TD50,"mouse, strain B6C3F1, males, in feed, site: liver, lesion: hepatocellular adenoma + hepatocellular carcinoma + neoplastic nodule, dosed 80 weeks, study length 91 weeks",1.04 mg/kg/day
same,TD50,"mouse, strain B6C3F1, males, in feed, site: liver, lesion: hepatocellular carcinoma, dosed 80 weeks, study length 89 weeks",1.35 mg/kg/day
same,TD50,"mouse, strain B6C3F1, males, in feed, site: lung, lesion: alveolar/bronchiolar adenoma + alveolar/bronchiolar carcinoma, dosed 80 weeks, study length 91 weeks",24.7 mg/kg/day
same,TD50,"mouse, strain C3HeB/Fe, both sexes, in feed, site: any site (literature study), lesion: benign tumor, dosed 104 weeks, study length 104 weeks",3.1 mg/kg/day
same,TD50,"mouse, strain C3HeB/Fe, both sexes, in feed, site: liver, lesion: hepatocellular adenoma, dosed 104 weeks, study length 104 weeks",4.09 mg/kg/day
same,TD50,"mouse, strain C3HeB/Fe, both sexes, in feed, site: liver, lesion: hepatocellular carcinoma, dosed 104 weeks, study length 104 weeks",167 mg/kg/day
same,TD50,"mouse, strain C3HeB/Fe, both sexes, in feed, site: liver, lesion: hepatoma, dosed 104 weeks, study length 104 weeks",3.08 mg/kg/day
same,TD50,"mouse, strain CF-1, females, in feed, site: liver, lesion: liver-cell tumor, type B, dosed 90 weeks, study length 90 weeks",2.59 mg/kg/day
same,TD50,"mouse, strain CF-1, females, in feed, site: liver, lesion: liver-cell tumor, type B, dosed 106 weeks, study length 106 weeks",3.96 mg/kg/day
same,TD50,"mouse, strain CF-1, females, in feed, site: liver, lesion: liver-cell tumor, type B, dosed 108 weeks, study length 128 weeks",9.72 mg/kg/day
same,TD50,"mouse, strain CF-1, females, in feed, site: liver, lesion: liver-cell tumor, type B, dosed 122 weeks, study length 138 weeks",1.96 mg/kg/day
same,TD50,"mouse, strain CF-1, females, in feed, site: liver, lesion: liver-cell tumor, type B, dosed 128 weeks, study length 128 weeks",12.1 mg/kg/day
same,TD50,"mouse, strain CF-1, females, in feed, site: liver, lesion: liver-cell tumor, dosed 110 weeks, study length 110 weeks",1.59 mg/kg/day
same,TD50,"mouse, strain CF-1, females, in feed, site: liver, lesion: several types, types named in the paper, dosed 90 weeks, study length 90 weeks",1.05 mg/kg/day
same,TD50,"mouse, strain CF-1, females, in feed, site: liver, lesion: several types, types named in the paper, dosed 106 weeks, study length 106 weeks",1.16 mg/kg/day
same,TD50,"mouse, strain CF-1, females, in feed, site: liver, lesion: several types, types named in the paper, dosed 108 weeks, study length 128 weeks",1.49 mg/kg/day
same,TD50,"mouse, strain CF-1, females, in feed, site: liver, lesion: several types, types named in the paper, dosed 110 weeks, study length 110 weeks",0.567 mg/kg/day
same,TD50,"mouse, strain CF-1, females, in feed, site: liver, lesion: several types, types named in the paper, dosed 122 weeks, study length 138 weeks",0.642 mg/kg/day
same,TD50,"mouse, strain CF-1, females, in feed, site: liver, lesion: several types, types named in the paper, dosed 128 weeks, study length 128 weeks",3.11 mg/kg/day
same,carcinogen call,"mouse, strain CF-1, females, in feed, site: lung, lesion: adenoma, dosed 90 weeks, study length 90 weeks",negative (inactive)
same,TD50,"mouse, strain CF-1, females, in feed, site: lung, lesion: adenoma, dosed 106 weeks, study length 106 weeks",5.69 mg/kg/day (inactive)
same,carcinogen call,"mouse, strain CF-1, females, in feed, site: lung, lesion: adenoma, dosed 108 weeks, study length 128 weeks",negative (inactive)
same,TD50,"mouse, strain CF-1, females, in feed, site: lung, lesion: adenoma, dosed 122 weeks, study length 138 weeks",0.606 mg/kg/day (inactive)
same,carcinogen call,"mouse, strain CF-1, females, in feed, site: lung, lesion: adenoma, dosed 128 weeks, study length 128 weeks",negative (inactive)
same,carcinogen call,"mouse, strain CF-1, females, in feed, site: lung, lesion: carcinoma, dosed 90 weeks, study length 90 weeks",negative (inactive)
same,carcinogen call,"mouse, strain CF-1, females, in feed, site: lung, lesion: carcinoma, dosed 106 weeks, study length 106 weeks",negative (inactive)
same,carcinogen call,"mouse, strain CF-1, females, in feed, site: lung, lesion: carcinoma, dosed 108 weeks, study length 128 weeks",negative (inactive)
same,TD50,"mouse, strain CF-1, females, in feed, site: lung, lesion: carcinoma, dosed 122 weeks, study length 138 weeks",1.78 mg/kg/day (inactive)
same,carcinogen call,"mouse, strain CF-1, females, in feed, site: lung, lesion: carcinoma, dosed 128 weeks, study length 128 weeks",negative (inactive)
same,carcinogen call,"mouse, strain CF-1, females, in feed, site: lung, lesion: one or several types, types not named, dosed 110 weeks, study length 110 weeks",negative (inactive)
same,TD50,"mouse, strain CF-1, males, in feed, site: liver, lesion: liver-cell tumor, type B, dosed 110 weeks, study length 124 weeks",4.02 mg/kg/day
same,TD50,"mouse, strain CF-1, males, in feed, site: liver, lesion: liver-cell tumor, type B, dosed 112 weeks, study length 128 weeks",4.66 mg/kg/day
same,TD50,"mouse, strain CF-1, males, in feed, site: liver, lesion: liver-cell tumor, type B, dosed 120 weeks, study length 134 weeks",1.68 mg/kg/day
same,TD50,"mouse, strain CF-1, males, in feed, site: liver, lesion: liver-cell tumor, type B, dosed 128 weeks, study length 128 weeks",5.12 mg/kg/day and 6.58 mg/kg/day
same,TD50,"mouse, strain CF-1, males, in feed, site: liver, lesion: liver-cell tumor, dosed 110 weeks, study length 110 weeks",1.28 mg/kg/day
same,carcinogen call,"mouse, strain CF-1, males, in feed, site: liver, lesion: several types, types named in the paper, dosed 110 weeks, study length 110 weeks",positive
same,TD50,"mouse, strain CF-1, males, in feed, site: liver, lesion: several types, types named in the paper, dosed 110 weeks, study length 124 weeks",0.713 mg/kg/day
same,TD50,"mouse, strain CF-1, males, in feed, site: liver, lesion: several types, types named in the paper, dosed 112 weeks, study length 128 weeks",1.12 mg/kg/day
same,TD50,"mouse, strain CF-1, males, in feed, site: liver, lesion: several types, types named in the paper, dosed 120 weeks, study length 134 weeks",0.547 mg/kg/day
same,TD50,"mouse, strain CF-1, males, in feed, site: liver, lesion: several types, types named in the paper, dosed 128 weeks, study length 128 weeks",0.913 mg/kg/day and 1.91 mg/kg/day
same,carcinogen call,"mouse, strain CF-1, males, in feed, site: lung, lesion: adenoma, dosed 110 weeks, study length 124 weeks",negative (inactive)
same,carcinogen call,"mouse, strain CF-1, males, in feed, site: lung, lesion: adenoma, dosed 112 weeks, study length 128 weeks",negative (inactive)
same,TD50,"mouse, strain CF-1, males, in feed, site: lung, lesion: adenoma, dosed 120 weeks, study length 134 weeks",2.13 mg/kg/day (inactive)
same,carcinogen call,"mouse, strain CF-1, males, in feed, site: lung, lesion: adenoma, dosed 128 weeks, study length 128 weeks",negative (inactive)
same,carcinogen call,"mouse, strain CF-1, males, in feed, site: lung, lesion: carcinoma, dosed 110 weeks, study length 124 weeks",negative (inactive)
same,carcinogen call,"mouse, strain CF-1, males, in feed, site: lung, lesion: carcinoma, dosed 112 weeks, study length 128 weeks",negative (inactive)
same,TD50,"mouse, strain CF-1, males, in feed, site: lung, lesion: carcinoma, dosed 120 weeks, study length 134 weeks",3.71 mg/kg/day (inactive)
same,carcinogen call,"mouse, strain CF-1, males, in feed, site: lung, lesion: carcinoma, dosed 128 weeks, study length 128 weeks",negative (inactive)
same,carcinogen call,"mouse, strain CF-1, males, in feed, site: lung, lesion: one or several types, types not named, dosed 110 weeks, study length 110 weeks",negative (inactive)
same,carcinogen call,"rat, strain CFE, females, in feed, site: any site (literature study), lesion: several types, types named in the paper, dosed 104 weeks, study length 104 weeks",negative (inactive)
same,TD50,"rat, strain CFE, males, in feed, site: any site (literature study), lesion: several types, types named in the paper, dosed 104 weeks, study length 104 weeks",2.01 mg/kg/day (inactive)
same,TD50,"rat, strain Fischer 344, females, in feed, site: any site (literature study), lesion: several types, types named in the paper, dosed 105 weeks, study length 104 weeks",489 mg/kg/day (inactive)
same,TD50,"rat, strain Fischer 344, males, in feed, site: any site (literature study), lesion: several types, types named in the paper, dosed 105 weeks, study length 104 weeks",7.28 mg/kg/day (inactive)
same,TD50,"rat, strain Not specified, females, in feed, site: any site (literature study), lesion: one or several types, types not named, dosed 104 weeks, study length 104 weeks",57.2 mg/kg/day (inactive)
same,TD50,"rat, strain Not specified, males, in feed, site: any site (literature study), lesion: one or several types, types not named, dosed 104 weeks, study length 104 weeks",40.5 mg/kg/day (inactive)
same,carcinogen call,"rat, strain Osborne-Mendel, both sexes, in feed, site: any site (literature study), lesion: several types, types named in the paper, dosed 104 weeks, study length 104 weeks",positive
same,TD50,"rat, strain Osborne-Mendel, females, in feed, site: adrenal gland, lesion: cortical adenoma + cortical carcinoma, dosed 90 weeks, study length 109 weeks",4.42 mg/kg/day (inactive)
same,carcinogen call,"rat, strain Osborne-Mendel, females, in feed, site: any site (literature study), lesion: several types, types named in the paper, dosed 90 weeks, study length 110 weeks",negative (inactive)
same,carcinogen call,"rat, strain Osborne-Mendel, females, in feed, site: any site (literature study), lesion: several types, types named in the paper, dosed 121 weeks, study length 126 weeks",negative (inactive)
same,TD50,"rat, strain Osborne-Mendel, females, in feed, site: liver, lesion: hepatocellular adenoma + hepatocellular carcinoma + neoplastic nodule, dosed 90 weeks, study length 110 weeks",38.4 mg/kg/day
same,carcinogen call,"rat, strain Osborne-Mendel, females, in feed, site: liver, lesion: one or several types, types not named, dosed 121 weeks, study length 126 weeks",negative (inactive)
same,TD50,"rat, strain Osborne-Mendel, males, in feed, site: any site (literature study), lesion: several types, types named in the paper, dosed 90 weeks, study length 110 weeks",3.34 mg/kg/day (inactive)
same,carcinogen call,"rat, strain Osborne-Mendel, males, in feed, site: any site (literature study), lesion: several types, types named in the paper, dosed 126 weeks, study length 126 weeks",negative (inactive)
same,carcinogen call,"rat, strain Osborne-Mendel, males, in feed, site: liver, lesion: hemangioma, dosed 126 weeks, study length 126 weeks",negative (inactive)
O=NN1CSCSC1,TD50,"rat, strain Fischer 344, females, by gavage, site: liver, lesion: hepatocellular carcinoma, dosed 47 weeks, study length 110 weeks",10.5 mg/kg/day (inactive)
same,TD50,"rat, strain Fischer 344, females, by gavage, site: nasal mucosa, lesion: carcinoma, dosed 47 weeks, study length 110 weeks",5.11 mg/kg/day
